Assay results as given in PubChem BioAssay AID330 (DTP/NCI, 2004).
Several values for one entry are separate records, joined by “and”; a condition that tells them apart may be missing. Equal values may be shown once. Inconclusive results and toxic doses are left out.

Tested on: P388 leukemia ip, CD2F1 mice, survival T/C
Assay: NCI In Vivo Anticancer Drug Screen. Data for tumor model P388 Leukemia (intraperitoneal) in CD2F1 (CDF1) mice
Settings: endpoint: median survival time, higher = longer survival
How it was run: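 Mice carrying the transplanted tumor received test compound or vehicle. Survival was recorded in each group, and the value is the treated-group measurement divided by that of the vehicle-treated control group.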

[1] = dose: 25.0 mg/kg/injection, schedule: Q01DX009 (ip), vehicle: distilled water + Tween-80
[2] = dose: 50.0 mg/kg/injection, schedule: Q01DX009 (ip), vehicle: distilled water + Tween-80
[3] = dose: 100.0 mg/kg/injection, schedule: Q01DX009 (ip), vehicle: distilled water + Tween-80
[4] = dose: 200.0 mg/kg/injection, schedule: Q01DX009 (ip), vehicle: distilled water + Tween-80
[5] = dose: 50.0 mg/kg/injection, schedule: Q04DX002 (ip), vehicle: saline with Tween-80
[6] = dose: 100.0 mg/kg/injection, schedule: Q04DX002 (ip), vehicle: saline with Tween-80
[7] = dose: 200.0 mg/kg/injection, schedule: Q04DX002 (ip), vehicle: saline with Tween-80
[8] = dose: 50.0 mg/kg/injection, schedule: Q01DX005 (ip), vehicle: saline with Tween-80
[9] = dose: 100.0 mg/kg/injection, schedule: Q01DX005 (ip), vehicle: saline with Tween-80
[10] = dose: 200.0 mg/kg/injection, schedule: Q01DX005 (ip), vehicle: saline with Tween-80
[11] = dose: 50.0 mg/kg/injection, schedule: Q01DX005 (ip), vehicle: Klucel (hydroxypropylcellulose) (HPC)
[12] = dose: 100.0 mg/kg/injection, schedule: Q01DX005 (ip), vehicle: Klucel (hydroxypropylcellulose) (HPC)
[13] = dose: 200.0 mg/kg/injection, schedule: Q01DX005 (ip), vehicle: Klucel (hydroxypropylcellulose) (HPC)
[14] = dose: 6.25 mg/kg/injection, schedule: Q01DX009 (ip), vehicle: Klucel (hydroxypropylcellulose) (HPC)
[15] = dose: 12.5 mg/kg/injection, schedule: Q01DX009 (ip), vehicle: Klucel (hydroxypropylcellulose) (HPC)
[16] = dose: 50.0 mg/kg/injection, schedule: Q01DX009 (ip), vehicle: Klucel (hydroxypropylcellulose) (HPC)
[17] = dose: 100.0 mg/kg/injection, schedule: Q01DX009 (ip), vehicle: Klucel (hydroxypropylcellulose) (HPC)
[18] = dose: 60.0 mg/kg/injection, schedule: Q01DX005 (ip), vehicle: saline with Tween-80
[19] = dose: 120.0 mg/kg/injection, schedule: Q01DX005 (ip), vehicle: saline with Tween-80
[20] = dose: 240.0 mg/kg/injection, schedule: Q01DX005 (ip), vehicle: saline with Tween-80
[21] = dose: 25.0 mg/kg/injection, schedule: Q01DX009 (ip), vehicle: saline with Tween-80
[22] = dose: 50.0 mg/kg/injection, schedule: Q01DX009 (ip), vehicle: saline with Tween-80
[23] = dose: 100.0 mg/kg/injection, schedule: Q01DX009 (ip), vehicle: saline with Tween-80

With `Nc1nc(N)nc(CCC(Cl)(Cl)Cl)n1` the T/C (dose: 12.5 mg/kg/injection, schedule: Q01DX009 (ip), vehicle: distilled water + Tween-80) was 100 % of control, the T/C [1] was 100 % of control and the T/C [2] was 95 % of control. For the same molecule, the T/C [3] was 95 % of control and the T/C [4] was 100 % of control.

In the case of `COC(=O)C(NP(=O)(NC(C(=O)OC)c1ccccc1)N(CCCl)CCCl)c1ccccc1` (configuration not stated), the T/C (dose: 7.5 mg/kg/injection, schedule: Q01DX005 (ip), vehicle: saline with Tween-80) was 102 % of control, the T/C (dose: 15.0 mg/kg/injection, schedule: Q01DX005 (ip), vehicle: saline with Tween-80) was 100 % of control and the T/C (dose: 30.0 mg/kg/injection, schedule: Q01DX005 (ip), vehicle: saline with Tween-80) was 101 % of control.

`OC[C@@H](O)C[C@H](CO)Cc1ccc2c(c1)OCO2` was tested, and the T/C [5] was 96 % of control, the T/C [6] was 87 % of control and the T/C [7] was 99 % of control.

With `O=NC=C1N(O)C=CN1O` the T/C (dose: 25.0 mg/kg/injection, schedule: Q01DX009 (ip), vehicle: other) was 102 % of control, the T/C (dose: 50.0 mg/kg/injection, schedule: Q01DX009 (ip), vehicle: other) was 101 % of control and the T/C (dose: 100.0 mg/kg/injection, schedule: Q01DX009 (ip), vehicle: other) was 97 % of control. The T/C (dose: 200.0 mg/kg/injection, schedule: Q01DX009 (ip), vehicle: other) was 102 % of control and the T/C (dose: 400.0 mg/kg/injection, schedule: Q01DX009 (ip), vehicle: other) was 99 % of control.

For `CN(O)C(=O)CN`, the T/C [8] was 102 % of control, the T/C [9] was 102 % of control and the T/C [10] was 98 % of control. The T/C (dose: 400.0 mg/kg/injection, schedule: Q01DX005 (ip), vehicle: saline with Tween-80) was 100 % of control.

`COc1ccc2nc(-c3ccccc3)cc(C(=O)/C=C/c3ccc(N(C)C)cc3)c2c1` was tested, and the T/C [8] was 89 % of control, the T/C [9] was 86 % of control and the T/C [10] was 89 % of control.

With `COC1=C(C)[C@@H]2CC(=O)O[C@@H]3C[C@H]4CCCC[C@]4(C)[C@@H](C1=O)[C@@]32C` the T/C [11] was 95 % of control, the T/C [12] was 92 % of control and the T/C [13] was 93 % of control.

`Nc1cc(-c2ccc(Br)cc2)nn1-c1nnc(-c2ccccc2)c(-c2ccccc2)n1` was tested, and the T/C [8] was 101 % of control, the T/C [9] was 93 % of control and the T/C [10] was 92 % of control.

`O=C(O)C(=O)O.[Co].[NH-]CC[NH-].[NH-]CC[NH-]` was tested, and the T/C (dose: 12.5 mg/kg/injection, schedule: Q04DX002 (ip), vehicle: saline with Tween-80) was 100 % of control and the T/C (dose: 25.0 mg/kg/injection, schedule: Q04DX002 (ip), vehicle: saline with Tween-80) was 100 % of control.

With `CC1=[N+]([O-])[N+]([O-])=C(C)C1=O` the T/C [14] was 91 % of control and the T/C [15] was 100 % of control.

For `CC(C)CNC(=O)OCc1c(COC(=O)NCC(C)C)c(-c2ccc(Cl)c(Cl)c2)n2c1CCC2`, the T/C (dose: 6.25 mg/kg/injection, schedule: Q01DX009 (ip), vehicle: distilled water + Tween-80) was 111 % of control and 116 % of control, the T/C [1] was 158 % of control and 171 % of control and the T/C [2] was 182 % of control and 198 % of control. For the same molecule, the T/C [3] was 180 % of control and the T/C [4] was 100 % of control and 92 % of control.

For `CCCCCCCC(=O)Nc1cc2c3c(c1)CCCN3CCC2`, the T/C (dose: 50.0 mg/kg/injection, schedule: Q01DX001 (ip), vehicle: saline with Tween-80) was 100 % of control, the T/C (dose: 100.0 mg/kg/injection, schedule: Q01DX001 (ip), vehicle: saline with Tween-80) was 95 % of control and the T/C (dose: 200.0 mg/kg/injection, schedule: Q01DX001 (ip), vehicle: saline with Tween-80) was 90 % of control.

For `CCOC(=O)C(NC(C)=O)(C(=O)OCC)C(C)C(O)c1ccc(OC)c(OC)c1O` (configuration not stated), the T/C [16] was 108 % of control, the T/C [17] was 103 % of control and the T/C (dose: 200.0 mg/kg/injection, schedule: Q01DX009 (ip), vehicle: Klucel (hydroxypropylcellulose) (HPC)) was 109 % of control. The T/C (dose: 400.0 mg/kg/injection, schedule: Q01DX009 (ip), vehicle: Klucel (hydroxypropylcellulose) (HPC)) was 93 % of control.

For `O=[N+]([O-])c1cccnc1S(=O)(=O)c1ccccn1`, the T/C [14] was 100 % of control and the T/C [15] was 100 % of control.

In the case of `CCOC(=O)C(Cl)c1ccc(OC)cc1` (configuration not stated), the T/C (dose: 100.0 mg/kg/injection, schedule: Q04DX003 (ip), vehicle: other) was 104 % of control, the T/C (dose: 200.0 mg/kg/injection, schedule: Q04DX003 (ip), vehicle: other) was 90 % of control and the T/C (dose: 400.0 mg/kg/injection, schedule: Q04DX003 (ip), vehicle: other) was 104 % of control.

For `CCCCCCCCC1OCN2CCCCC12` (configuration not stated), the T/C (dose: 50.0 mg/kg/injection, schedule: Q01DX005 (ip), vehicle: saline) was 108 % of control, the T/C (dose: 100.0 mg/kg/injection, schedule: Q01DX005 (ip), vehicle: saline) was 102 % of control and the T/C (dose: 200.0 mg/kg/injection, schedule: Q01DX005 (ip), vehicle: saline) was 100 % of control.

`Cc1cc2ccccc2c[n+]1CCCCCCCCI` was tested, and the T/C (dose: 6.25 mg/kg/injection, schedule: Q01DX005 (ip), vehicle: saline with Tween-80) was 110 % of control, the T/C (dose: 12.5 mg/kg/injection, schedule: Q01DX005 (ip), vehicle: saline with Tween-80) was 115 % of control and the T/C (dose: 25.0 mg/kg/injection, schedule: Q01DX005 (ip), vehicle: saline with Tween-80) was 110 % of control. The T/C [8] was 108 % of control.

In the case of `COc1cc2c(c(OC)c1)C(O)=C1C(=O)C3C(O)=C(C(=O)NC(C)(C)C)C(=O)C(NC(=S)c4ccccc4)C3CC1C2` (configuration not stated), the T/C [18] was 92 % of control, the T/C [19] was 94 % of control and the T/C [20] was 101 % of control.

With `CC(C)c1ccc(C(CC(=O)C(C)(C)C)C(C(=O)O)c2ccc([N+](=O)[O-])cc2)cc1` (configuration not stated) the T/C [16] was 109 % of control and the T/C [17] was 108 % of control.

In the case of `CC1(C)c2ccccc2-c2nc3ccccc3c(N)c2C1O` (configuration not stated), the T/C [11] was 104 % of control, the T/C [12] was 100 % of control and the T/C [13] was 104 % of control.

With `CONC(=O)Cc1cccc(OC)c1` the T/C [21] was 104 % of control, the T/C [22] was 114 % of control and the T/C [23] was 98 % of control.

`CCCC/C(C)=N/NC(=S)SC` was tested, and the T/C (dose: 3.12 mg/kg/injection, schedule: Q01DX009 (ip), vehicle: saline) was 100 % of control, the T/C (dose: 6.25 mg/kg/injection, schedule: Q01DX009 (ip), vehicle: saline) was 106 % of control and the T/C (dose: 12.5 mg/kg/injection, schedule: Q01DX009 (ip), vehicle: saline) was 100 % of control.

`COC(=O)C1=C2c3cc4c(cc3CCN2C2(O)c3c(ccc(OC)c3OC)C(=O)C12C(=O)OC)OCO4` (configuration not stated) was tested, and the T/C [5] was 96 % of control, the T/C [6] was 103 % of control and the T/C [7] was 96 % of control.

With `Clc1cc2nc[nH]c2cc1Cl` the T/C [22] was 101 % of control and the T/C [23] was 90 % of control.

In the case of `O=CNc1ccc(/C=C\c2ccnc3ccccc23)cc1`, the T/C (dose: 3.13 mg/kg/injection, schedule: Q01DX009 (ip), vehicle: saline with Tween-80) was 109 % of control, the T/C (dose: 6.25 mg/kg/injection, schedule: Q01DX009 (ip), vehicle: saline with Tween-80) was 100 % of control and the T/C (dose: 12.5 mg/kg/injection, schedule: Q01DX009 (ip), vehicle: saline with Tween-80) was 100 % of control. For the same molecule, the T/C [21] was 91 % of control.

In the case of `O=C1C2CC3CC1CC(Cl)(C3)C2`, the T/C [8] was 112 % of control and the T/C [9] was 98 % of control.

In the case of `CCO/C(C)=C\C(=O)O`, the T/C [8] was 98 % of control, the T/C [9] was 97 % of control and the T/C [10] was 97 % of control.

In the case of `C=CCc1cc(OC)c(OCC(=O)O)c(OC)c1`, the T/C (dose: 100.0 mg/kg/injection, schedule: Q04DX003 (ip), vehicle: Klucel (hydroxypropylcellulose) (HPC)) was 98 % of control and the T/C (dose: 200.0 mg/kg/injection, schedule: Q04DX003 (ip), vehicle: Klucel (hydroxypropylcellulose) (HPC)) was 109 % of control.

For `O=C(O)c1c2c(nc3ccccc13)CCCC2`, the T/C (dose: 50.0 mg/kg/injection, schedule: Q01DX005 (ip), vehicle: Klucel + Tween-80) was 94 % of control and the T/C (dose: 100.0 mg/kg/injection, schedule: Q01DX005 (ip), vehicle: Klucel + Tween-80) was 107 % of control.

In the case of `CC(=O)Nc1ccc(S(=O)(=O)N/N=c2/sc3ccccc3n2C)cc1`, the T/C [18] was 100 % of control, the T/C [19] was 92 % of control and the T/C [20] was 95 % of control.
